# Values quoted from earlier work in patent US20070110715A1, “Treatment of alzheimer's disease” (Ares Trading S.A., priority 2003, published 2007).
# Test system: Alzheimer's disease risk
# Details: postmenopausal women using hormone replacement
substance,measurement,value
estrogen,reduction in disease risk (AD),~50%
